From article PMC5602130, “Food and Sex-Related Impacts on the Pharmacokinetics of a Single-Dose of Ginsenoside Compound K in Healthy Subjects” (Frontiers in Pharmacology, 2017)
Like-named read-outs stand apart in the source and are kept apart here. Marks after values point to notes of the source that are not given here.

Key:
[1] = Food-effect two-period crossover trial: plasma pharmacokinetics after a single 200 mg oral dose of Ginsenoside CK Tablets; format: in vivo, human; details: for AUC(0-inf) / AUC(0-t) / Tmax / Cmax / half-life / MRT inf / MRT last: human, plasma, po, 200 mg; for AUC(0-inf) / AUC(0-t) / Tmax / Cmax / half-life / MRT inf / MRT last / V/F: single oral 200 mg CK; for Tmax: median (range); for Cmax: read-out: Cmax; for half-life: read-out: t1/2 (converted)
Experimental: The food-effect trial was an open-label, randomized, two-period, two-treatment crossover trial, carried out from 15 January to 31 March 2015. Subjects (n = 24) were admitted to the clinical facility (Center of Clinical Pharmacology, the Third Xiangya Hospital, Central South University, Changsha, China) and randomized to receive a single 200 mg oral dose of Ginsenoside CK Tablets (4 × 50 mg tablets) either after a 10 h-fasting period or within 30 min after beginning the consumption of a recommended high-fat, high calorie breakfast (150 calories of protein, 250 calories of carbohydrates, 500 to 600 calories of fat; total calories approximately 800–1,000). Tablets were administered with 250 mL of water, to each subject, in each treatment period. Drinking was prohibited for 2 h before and after medication. Apart from this, the amount and time of drinking were not strictly controlled. Subjects had unified, standard meals 4 and 10 h after drug administration. The alternate treatment was conducted after a 14-day washout period.
Serial blood samples (5 mL) for PK assessment were collected from an indwelling catheter or by direct venipuncture prior to the administration (t = 0) and 0.25, 0.5, 1, 1.5, 2, 2.5, 3, 3.5, 4, 5, 6, 8, 12, 24, 36, 48, 72, and 96 h after the administration of ginsenoside CK. We inferred that these sampling times were sufficient for this trial, based on international guidelines (FDA, [2003]; CFDA, [2005]) and our previous results, since the sampling time is longer than at least three terminal half-lives of the drug. Additionally, the mean plasma concentrations of both CK and 20(S)-PPD at 96 h were considerably <1/20 of their Cmax even when the single oral dose at 800 mg (unpublished). Plasma was separated in blood collection tubes by centrifugation (3,000 rpm, 10 min) at 4°C within 1 h after sampling, transferred to labeled storage tubes and stored at −70°C pending workup and analysis.
Descriptive statistics of PK parameters were calculated using established non-compartmental methods, utilizing the WinNonLin version 6.1 software (Pharsight Corporation, USA). The PK parameters determined for each participant included apparent terminal half-life (t1/2), maximum plasma concentration (Cmax), time to Cmax (tmax), area under the plasma concentration-time curve from the time of administration up to the last time point with a measurable concentration post-dose (AUClast), AUC extrapolated to infinity (AUCinf), apparent volume of distribution (V/F), apparent plasma clearance (CL/F) after extravascular administration, mean residence time (MRTlast and MRTinf), and the cumulative excretion rate from urine. The t1/2 was estimated as (ln2)/K, where K represented the slope of the terminal phase of plasma concentration-time profile and was assessed with a weighting factor of 1, using least squares (log-linear regression of at least three data points). The Cmax and tmax were obtained from experimental observations. The values of AUC were calculated using conventional trapezoidal and log-trapezoidal methods and the extrapolated area (Rowland and Tozer, [1995]). CL/F and V/F were calculated as dose/AUCinf and (CL/F)/K, respectively. MRT was calculated as MRT = AUMC/AUC, where AUMC is the area under the first moment curve. The cumulative excretion rate was calculated as the amount of unchanged drug over a time interval in the urine divided by dose, and was expressed as a percentage.
All samples were detected using a LC-MS/MS (API 4000, ABI Company, USA) method, validated at the Institute of Clinical Pharmacology, Central South University (Changsha, China). Concentrations of CK and 20(S)-PPD were measured using a triple quadrupole tandem mass spectrometer in multiple reaction monitoring (MRM) mode, via a positive electrospray ionization source at m/z 621.4→ 160.8 for the CK and m/z 461.5→425.3 for 20(S)-PPD, with a dwell time of 200 ms. […]

[2] = design: method as in unpublished; details: single oral dose at 800 mg; ref unpublished; cited from earlier work
[3] = geometric mean ratio FO vs. HF, n = 24

For `CC(C)=CCC[C@](C)(O)C1CC[C@]2(C)C1[C@H](O)CC1[C@@]3(C)CC[C@H](O)C(C)(C)C3CC[C@]12C` (stereo partly drawn) [20(S)-PPD, 20(S)-protopanaxadiol], the “lgAUClast GMR (90%CI)” value ([1]; FO vs. HF (Female), n = 12) was 1.83 (1.27–2.64), the “lgCmax GMR (90%CI)” value ([1]; FO vs. HF (Female), n = 12) was 1.98 (1.47–2.66) and the “lgAUClast GMR (90%CI)” value ([1]; FO vs. HF (Male), n = 12) was 1.08 (0.69–1.70). The “lgCmax GMR (90%CI)” value ([1]; FO vs. HF (Male), n = 12) was 1.12 (0.74–1.70), the “lgAUClast GMR (90%CI)” value ([1]; M vs. F (FO), n = 12) was 0.34 (0.15–0.75) and the “lgCmax GMR (90%CI)” value ([1]; M vs. F (FO), n = 12) was 0.48 (0.23–0.99). For the same compound, the “lgAUClast GMR (90%CI)” value ([1]; M vs. F (HF), n = 12) was 0.57 (0.23–1.41), the “lgCmax GMR (90%CI)” value ([1]; M vs. F (HF), n = 12) was 0.84 (0.38–1.84) and the AUC(0-inf) ([1]; both sexes, FO, all subjects) was 228 ± 96.1 ng·h/mL. It also gave an AUC(0-t) ([1]; both sexes, FO, all subjects) of 161 ± 114 ng·h/mL, an AUC(0-inf) ([1]; both sexes, HF, all subjects) of 163 ± 95.4 ng·h/mL and an AUC(0-t) ([1]; both sexes, HF, all subjects) of 116 ± 97.1 ng·h/mL. The Tmax ([1]; female, FO) was 26 h, the Tmax ([1]; female, HF) was 26 h and the Cmax ([1]; female, FO, female) was 6.4 ± 2.7 ng/mL. The half-life ([1]; female, FO, female) was 19.9 ± 5.5 h, the Cmax ([1]; female, HF, female) was 3.5 ± 2.1 ng/mL and the half-life ([1]; female, HF, female) was 21.2 ± 7.6 h. For the same compound, the MRT inf ([1]; female, FO) was 40.7 ± 7.5 h, the MRT last ([1]; female, FO) was 36.3 ± 6.8 h and the MRT inf ([1]; female, HF) was 46.7 ± 8.6 h. The MRT last ([1]; female, HF) was 37.5 ± 5.8 h, the AUC(0-inf) ([1]; female, FO) was 225 ± 86.4 ng·h/mL and the AUC(0-t) ([1]; female, FO) was 203 ± 88.8 ng·h/mL. For the same compound, the AUC(0-inf) ([1]; female, HF) was 154 ± 99.5 ng·h/mL, the AUC(0-t) ([1]; female, HF) was 132 ± 97.4 ng·h/mL and the “lgAUClast GMR (90%CI)” value [1, 3] was 1.41 (1.05–1.88). The “lgCmax GMR (90%CI)” value [1, 3] was 1.49 (1.15–1.93), the Tmax ([1]; FO, all subjects) was 24.5 h and the Tmax ([1]; HF, all subjects) was 26 h. The half-life ([1]; FO (fasting overnight), all subjects) was 19.3 ± 6 h, the Cmax ([1]; FO, all subjects) was 5.7 ± 3.8 ng/mL and the half-life ([1]; HF (high-fat meal), all subjects) was 21.2 ± 9.8 h. For the same compound, the Cmax ([1]; HF, all subjects) was 3.7 ± 3 ng/mL, the MRT inf ([1]; FO, all subjects) was 38.5 ± 9.7 h and the MRT last ([1]; FO, all subjects) was 31.7 ± 8.4 h. It also gave an MRT inf ([1]; HF, all subjects) of 45.1 ± 9.5 h, an MRT last ([1]; HF, all subjects) of 33.8 ± 6.9 h and a Tmax ([1]; male, FO) of 23 h. The Tmax ([1]; male, HF) was 26 h, the Cmax ([1]; male, FO, male) was 4.9 ± 4.7 ng/mL and the half-life ([1]; male, FO, male) was 18.2 ± 7.1 h. For the same compound, the Cmax ([1]; male, HF, male) was 3.9 ± 3.8 ng/mL, the half-life ([1]; male, HF, male) was 21.2 ± 13.7 h and the MRT inf ([1]; male, FO) was 34.5 ± 12.5 h. For the same compound, the MRT last ([1]; male, FO) was 27 ± 7.4 h, the MRT inf ([1]; male, HF) was 42.2 ± 11.1 h and the MRT last ([1]; male, HF) was 30.2 ± 5.9 h. It also gave an AUC(0-inf) ([1]; male, FO) of 234 ± 121 ng·h/mL, an AUC(0-t) ([1]; male, FO) of 120 ± 124 ng·h/mL and an AUC(0-inf) ([1]; male, HF) of 178 ± 94.2 ng·h/mL. For the same compound, the AUC(0-t) ([1]; male, HF) was 100 ± 98.5 ng·h/mL, the V/F ([1]; FO, all subjects) was 30,348 ± 22,300^a L and the V/F ([1]; FO, female) was 33,100 ± 27,003^c L. The V/F ([1]; FO, male) was 25,304 ± 9,268^b L, the V/F ([1]; HF, all subjects) was 61,539 ± 64,303^a L and the V/F ([1]; HF, female) was 64,980 ± 64,481^c L. The V/F ([1]; HF, male) was 55,230 ± 69,586^b L and the “Mean plasma concentration at 96 h as fraction of Cmax” value [2] was < 1/20.
